Measurements published in patent US6737383B1, “Herbicidal oxadiazolidines” (priority 1999, dated 2004).

Key:
[1] = system: bedstraw; test: Test B pre/postemergence bedstraw; type: in vivo, Galium aparine
Summary of the method: (§1)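 Herbicidal effect was estimated by eye on a ten-point control scale after plants spent twelve to sixteen days in a greenhouse following soil or foliar treatment. Foliar sprays targeted plants at one to four leaves; all doses were formulated in a non-phytotoxic solvent with surfactant.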

[2] = system: blackgrass; test: Test B pre/postemergence blackgrass; type: in vivo, Alopecurus myosuroides
Summary of the method: as §1

[3] = system: surinam grass; test: Test B pre/postemergence surinam grass; type: in vivo, Brachiaria decumbens
Summary of the method: as §1

[4] = system: cocklebur; test: Test B pre/postemergence cocklebur; type: in vivo, Xanthium strumarium
Summary of the method: as §1

[5] = system: corn; test: Test B pre/postemergence corn; type: in vivo, Zea mays
Summary of the method: as §1

[6] = system: giant foxtail; test: Test B pre/postemergence giant foxtail; type: in vivo, Setaria faberii
Summary of the method: as §1

[7] = system: morningglory; test: Test B pre/postemergence morningglory; type: in vivo, Ipomoea hederacea
Summary of the method: as §1

[8] = system: pigweed; test: Test B pre/postemergence pigweed; type: in vivo, Amaranthus retroflexus
Summary of the method: as §1

[9] = system: rape; test: Test B pre/postemergence rape; type: in vivo, Brassica napus
Summary of the method: as §1

[10] = system: sugar beet; test: Test B pre/postemergence sugar beet; type: in vivo, Beta vulgaris
Summary of the method: as §1

[11] = system: velvetleaf; test: Test B pre/postemergence velvetleaf; type: in vivo, Abutilon theophrasti
Summary of the method: as §1

[12] = system: purple nutsedge; test: Test B pre/postemergence purple nutsedge; type: in vivo, Cyperus rotundus
Summary of the method: as §1

[13] = system: rice; test: Test B flood test rice; type: in vivo, Oryza sativa
Summary of the method: (§2)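 Read-out is a visual response score from 0 (no effect) to 10 (complete control), assigned by comparison with untreated controls. Treatment was applied at the 2-leaf stage, and plants stayed in the greenhouse for twelve to sixteen days before scoring.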

[14] = system: duck salad; test: Test B flood test duck salad; type: in vivo, Heteranthera limosa
Summary of the method: as §2

[15] = system: bamyardgrass; test: Test B flood test barnyardgrass; type: in vivo, Echinochloa crus-galli
Summary of the method: as §2

[16] = Preemergence, Rate 62 g/ha, scale of 0 to 10 where 0 is no effect and 10 is complete control
[17] = Preemergence, Rate 125 g/ha, 0 is no effect, 10 is complete control
[18] = Preemergence, Rate 250 g/ha, scale 0 to 10, 0 is no effect, 10 is complete control
[19] = Preemergence, Rate 500 g/ha, scale 0 to 10 (0 no effect, 10 complete control)
[20] = Rate 62 g/ha, Postemergence, scale of 0 to 10 where 0 is no effect and 10 is complete control
[21] = Rate 125 g/ha, Postemergence, scale 0 to 10
[22] = Rate 500 g/ha, Postemergence, scale 0 to 10
[23] = Rate 62 g/ha, headed Pre-emergence (flood test species), scale 0 to 10 (0 no effect, 10 complete control)
[24] = Rate 125 g/ha, Pre-emergence, flood test species, scale 0 to 10 where 0 is no effect and 10 is complete control
[25] = Rate 250 g/ha, Pre-emergence, flood-test species, scale 0 to 10, 0 is no effect, 10 is complete control
[26] = Rate 500 g/ha, headed Pre-emergence (flood test species), scale 0 to 10 (0 no effect, 10 complete control)

For `Cc1nc(C)c(Cn2c(=O)on(C(=O)N(c3ccc(F)cc3)C(C)C)c2=O)s1` [Compound 192], the “Bedstraw plant response rating” value [1, 16] was 0, the “Bedstraw plant response rating (0 to 10 scale)” value [1, 17] was 0 and the “Bedstraw plant response rating” value [1, 18] was 0. For the same compound, the “Bedstraw plant response rating” value [1, 19] was 0, the “Bedstraw plant response rating” value [1, 20] was 0 and the “Bedstraw plant response rating” value [1, 21] was 0. For the same compound, the “Plant response rating (0 to 10; 0 is no effect, 10 is complete control), Bedstraw” value ([1]; Rate 250 g/ha, Postemergence) was 0, the “Bedstraw plant response rating” value [1, 22] was 0 and the “Blackgrass plant response rating” value [2, 16] was 5. The “Blackgrass plant response rating (0 to 10 scale)” value [2, 17] was 5, the “Blackgrass plant response rating” value [2, 18] was 6 and the “Blackgrass plant response rating” value [2, 19] was 7. For the same compound, the “Blackgrass plant response rating” value [2, 20] was 0, the “Blackgrass plant response rating” value [2, 21] was 0 and the “Plant response rating (0 to 10; 0 is no effect, 10 is complete control), Blackgrass” value ([2]; Rate 250 g/ha, Postemergence) was 0. The “B. signalgrass plant response rating” value [3, 16] was 0, the “B. signalgrass plant response rating (0 to 10 scale)” value [3, 17] was 0 and the “B. signalgrass plant response rating” value [3, 18] was 6. For the same compound, the “B. signalgrass plant response rating” value [3, 19] was 6, the “B. signalgrass plant response rating” value [3, 20] was 0 and the “B. signalgrass plant response rating” value ([3]; Rate 125 g/ha, Postemergence, scale 0 (no effect) to 10 (complete control)) was 0. The “Plant response rating, B. signalgrass” value ([3]; Rate 250 g/ha, Postemergence, scale 0 to 10, 0 is no effect, 10 is complete control) was 0, the “B. signalgrass plant response rating” value ([3]; Rate 500 g/ha, Postemergence, scale 0 to 10, 0 no effect, 10 complete control) was 2 and the “Cocklebur plant response rating” value [4, 16] was 0. For the same compound, the “Cocklebur plant response rating (0 to 10 scale)” value [4, 17] was 0, the “Cocklebur plant response rating” value [4, 18] was 0 and the “Cocklebur plant response rating” value [4, 19] was 0. The “Cocklebur plant response rating” value [4, 20] was 0, the “Cocklebur plant response rating” value [4, 21] was 1 and the “Plant response rating (0 to 10; 0 is no effect, 10 is complete control), Cocklebur” value ([4]; Rate 250 g/ha, Postemergence) was 2. For the same compound, the “Cocklebur plant response rating” value [4, 22] was 5, the “Corn plant response rating” value [5, 16] was 0 and the “Corn plant response rating (0 to 10 scale)” value [5, 17] was 0. The “Corn plant response rating” value [5, 18] was 0, the “Corn plant response rating” value [5, 19] was 4 and the “Corn plant response rating” value [5, 20] was 0. For the same compound, the “Corn plant response rating” value [5, 21] was 0, the “Plant response rating (0 to 10; 0 is no effect, 10 is complete control), Corn” value ([5]; Rate 250 g/ha, Postemergence) was 0 and the “Corn plant response rating” value [5, 22] was 0. For the same compound, the “Giant foxtail plant response rating” value [6, 16] was 8, the “Giant foxtail plant response rating (0 to 10 scale)” value [6, 17] was 9 and the “Giant foxtail plant response rating” value [6, 18] was 10. The “Giant foxtail plant response rating” value [6, 19] was 10, the “Giant foxtail plant response rating” value [6, 20] was 0 and the “Giant foxtail plant response rating” value [6, 21] was 0. The “Plant response rating (0 to 10; 0 is no effect, 10 is complete control), Giant foxtail” value ([6]; Rate 250 g/ha, Postemergence) was 0, the “Giant foxtail plant response rating” value [6, 22] was 1 and the “Morningglory plant response rating” value [7, 16] was 0. For the same compound, the “Morningglory plant response rating (0 to 10 scale)” value [7, 17] was 0, the “Morningglory plant response rating” value [7, 18] was 0 and the “Morningglory plant response rating” value [7, 19] was 3. The “Morningglory plant response rating” value [7, 20] was 1, the “Morningglory plant response rating” value [7, 21] was 3 and the “Plant response rating (0 to 10; 0 is no effect, 10 is complete control), Morningglory” value ([7]; Rate 250 g/ha, Postemergence) was 6. The “Morningglory plant response rating” value [7, 22] was 6, the “Redroot pigweed plant response rating” value [8, 16] was 0 and the “Redroot pigweed plant response rating (0 to 10 scale)” value [8, 17] was 2. The “Redroot pigweed plant response rating” value [8, 18] was 5, the “Redroot pigweed plant response rating” value [8, 19] was 9 and the “Redroot pigweed plant response rating” value [8, 20] was 0. The “Redroot pigweed plant response rating” value [8, 21] was 1, the “Plant response rating (0 to 10; 0 is no effect, 10 is complete control), Redroot pigweed” value ([8]; Rate 250 g/ha, Postemergence) was 3 and the “Redroot pigweed plant response rating” value [8, 22] was 7. For the same compound, the “Rape plant response rating” value [9, 16] was 0, the “Rape plant response rating (0 to 10 scale)” value [9, 17] was 0 and the “Rape plant response rating” value [9, 18] was 4. For the same compound, the “Rape plant response rating” value [9, 19] was 9, the “Rape plant response rating” value [9, 20] was 0 and the “Rape plant response rating” value [9, 21] was 0. The “Plant response rating (0 to 10; 0 is no effect, 10 is complete control), Rape” value ([9]; Rate 250 g/ha, Postemergence) was 2, the “Rape plant response rating” value [9, 22] was 2 and the “Sugarbeets plant response rating” value [10, 16] was 0. The “Sugarbeets plant response rating (0 to 10 scale)” value [10, 17] was 0, the “Sugarbeets plant response rating” value [10, 18] was 0 and the “Sugarbeets plant response rating” value [10, 19] was 8. For the same compound, the “Sugarbeets plant response rating” value [10, 20] was 0, the “Sugarbeets plant response rating” value [10, 21] was 0 and the “Plant response rating (0 to 10; 0 is no effect, 10 is complete control), Sugarbeets” value ([10]; Rate 250 g/ha, Postemergence) was 0. The “Sugarbeets plant response rating” value [10, 22] was 5, the “Velvetleaf plant response rating” value [11, 16] was 0 and the “Velvetleaf plant response rating” value [11, 18] was 5. The “Velvetleaf plant response rating” value [11, 19] was 6, the “Velvetleaf plant response rating” value [11, 20] was 0 and the “Velvetleaf plant response rating” value [11, 21] was 2. The “Plant response rating (0 to 10; 0 is no effect, 10 is complete control), Velvetleaf” value ([11]; Rate 250 g/ha, Postemergence) was 3, the “Nutsedge plant response rating” value [12, 16] was 0 and the “Nutsedge plant response rating (0 to 10 scale)” value [12, 17] was 0. The “Nutsedge plant response rating” value [12, 20] was 0, the “Nutsedge plant response rating” value [12, 21] was 0 and the “Plant response rating (0 to 10; 0 is no effect, 10 is complete control), Nutsedge” value ([12]; Rate 250 g/ha, Postemergence) was 0. For the same compound, the “Nutsedge plant response rating” value [12, 22] was 0, the “Rice plant response rating” value [13, 23] was 0 and the “Rice plant response rating” value [13, 24] was 0. For the same compound, the “Rice plant response rating” value [13, 25] was 0, the “Plant response rating, Rice” value [13, 26] was 0 and the “Ducksalad plant response rating” value [14, 23] was 0. The “Ducksalad plant response rating” value [14, 24] was 0, the “Ducksalad plant response rating” value [14, 25] was 0 and the “Plant response rating, Ducksalad” value [14, 26] was 0. For the same compound, the “Barnyardgrass plant response rating” value [15, 23] was 0, the “Barnyardgrass plant response rating” value [15, 24] was 0 and the “Barnyardgrass plant response rating” value [15, 25] was 0. For the same compound, the “Plant response rating, Barnyardgrass” value [15, 26] was 0.
